Laboratory results taken from PubChem BioAssay (NCI).
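Values below derive from 48-hour exposures of cells grown in 96-well plates, with endpoints linearly interpolated between the two concentrations bracketing the appropriate inhibition level. GI50: concentration for 50% inhibition of growth. TGI: total growth inhibition.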

Legend:
Assay in all cases: NCI-60 cell line screen, 48 h
[1] = test system: 786-0 renal
[2] = test system: A498 renal
[3] = test system: A549 NSCLC
[4] = test system: ACHN renal
[5] = test system: BT-549 breast
[6] = test system: CAKI-1 renal
[7] = test system: CCRF-CEM leukemia
[8] = test system: COLO 205 colon
[9] = test system: DU-145 prostate
[10] = test system: EKVX NSCLC
[11] = test system: HCC-2998 colon
[12] = test system: HCT-116 colon
[13] = test system: HCT-15 colon
[14] = test system: HL-60(TB) leukemia
[15] = test system: HOP-62 NSCLC
[16] = test system: HOP-92 NSCLC
[17] = test system: HS 578T breast
[18] = test system: HT29 colon
[19] = test system: IGROV1 ovarian
[20] = test system: K-562 leukemia
[21] = test system: KM12 colon
[22] = test system: LOX IMVI melanoma
[23] = test system: M14 melanoma
[24] = test system: MALME-3M melanoma
[25] = test system: MCF7 breast
[26] = test system: MDA-MB-231 breast
[27] = test system: MDA-MB-435
[28] = test system: MOLT-4 leukemia
[29] = test system: NCI-H226 lung
[30] = test system: NCI-H23 lung
[31] = test system: NCI-H460 lung
[32] = test system: NCI-H522 lung
[33] = test system: NCI/ADR-RES ovarian
[34] = test system: OVCAR-3 ovarian
[35] = test system: OVCAR-4 ovarian
[36] = test system: OVCAR-5 ovarian
[37] = test system: OVCAR-8 ovarian
[38] = test system: PC-3 prostate
[39] = test system: RPMI-8226 leukemia
[40] = test system: SF-268 CNS
[41] = test system: SF-295 CNS
[42] = test system: SF-539 CNS
[43] = test system: SK-MEL-2 melanoma
[44] = test system: SK-MEL-28 melanoma
[45] = test system: SK-MEL-5 melanoma
[46] = test system: SK-OV-3 ovarian
[47] = test system: SN12C renal
[48] = test system: SNB-19 CNS
[49] = test system: SNB-75 CNS
[50] = test system: SR leukemia
[51] = test system: SW-620 colon
[52] = test system: T-47D breast
[53] = test system: TK-10 renal
[54] = test system: U251 CNS
[55] = test system: UACC-257 melanoma
[56] = test system: UACC-62 melanoma
[57] = test system: UO-31 renal

With `CCNCCOc1ccc(/C(=C(/CC)c2ccc(Cl)cc2)c2ccc(OCCCN(C)C)cc2)cc1` the GI50 [1] was 3.57 µM, the TGI [1] was 7.44 µM and the GI50 [2] was 3.38 µM. The TGI [2] was 6.98 µM, the GI50 [3] was 3.33 µM and the TGI [3] was 7.15 µM. The GI50 [4] was 4.41 µM, the TGI [4] was 8.02 µM and the GI50 [5] was 3.45 µM. For the same compound, the TGI [5] was 7.16 µM, the GI50 [6] was 4.39 µM and the TGI [6] was 8.05 µM. For the same compound, the GI50 [7] was 5.08 µM, the TGI [7] was 11.4 µM and the GI50 [8] was 3.13 µM. The TGI [8] was 7.84 µM, the GI50 [9] was 3.99 µM and the TGI [9] was 7.5 µM. For the same compound, the GI50 [10] was 4.32 µM, the TGI [10] was 8.1 µM and the GI50 [11] was 3.93 µM. It also gave a TGI [11] of 7.72 µM, a GI50 [12] of 2.78 µM and a TGI [12] of 6.48 µM. For the same compound, the GI50 [13] was 2.19 µM, the TGI [13] was 5.54 µM and the GI50 [14] was 5.83 µM. The TGI [14] was 11.1 µM, the GI50 [15] was 4.24 µM and the TGI [15] was 8.69 µM. For the same compound, the GI50 [16] was 0.818 µM, the TGI [16] was 4.47 µM and the GI50 [17] was 3.26 µM. For the same compound, the TGI [17] was 7.63 µM, the GI50 [18] was 0.98 µM and the TGI [18] was 3.79 µM. For the same compound, the GI50 [19] was 4.17 µM, the TGI [19] was 7.85 µM and the GI50 [20] was 0.933 µM. For the same compound, the TGI [20] was 2.43 µM, the GI50 [21] was 3.94 µM and the TGI [21] was 7.59 µM. For the same compound, the GI50 [22] was 3.72 µM, the TGI [22] was 7.37 µM and the GI50 [23] was 4.3 µM. The TGI [23] was 8.31 µM, the GI50 [24] was 3.95 µM and the TGI [24] was 7.57 µM. For the same compound, the GI50 [25] was 1.3 µM, the TGI [25] was 4.94 µM and the GI50 [26] was 4.06 µM. The TGI [26] was 7.73 µM, the GI50 [27] was 3.77 µM and the TGI [27] was 7.34 µM. For the same compound, the GI50 [28] was 4.56 µM, the TGI [28] was 9.41 µM and the GI50 [29] was 3.74 µM. The TGI [29] was 7.59 µM, the GI50 [30] was 4.31 µM and the TGI [30] was 8.15 µM. It also gave a GI50 [31] of 3.9 µM, a TGI [31] of 7.6 µM and a GI50 [32] of 4 µM. It also gave a TGI [32] of 8.04 µM, a GI50 [33] of 4.19 µM and a TGI [33] of 8.08 µM. For the same compound, the GI50 [34] was 3.46 µM, the TGI [34] was 6.87 µM and the GI50 [35] was 3.83 µM. The TGI [35] was 8.07 µM, the GI50 [36] was 4.07 µM and the TGI [36] was 7.67 µM. For the same compound, the GI50 [37] was 3.91 µM, the TGI [37] was 7.64 µM and the GI50 [38] was 4.01 µM. For the same compound, the TGI [38] was 9.01 µM, the GI50 [39] was 4.98 µM and the TGI [39] was 13.5 µM. For the same compound, the GI50 [40] was 3.89 µM, the TGI [40] was 7.92 µM and the GI50 [41] was 4.44 µM. The TGI [41] was 8.24 µM, the GI50 [42] was 3.97 µM and the TGI [42] was 7.51 µM. The GI50 [43] was 4.13 µM, the TGI [43] was 7.77 µM and the GI50 [44] was 4.16 µM. For the same compound, the TGI [44] was 7.78 µM, the GI50 [45] was 4.51 µM and the TGI [45] was 8.21 µM. The GI50 [46] was 4.36 µM, the TGI [46] was 8.34 µM and the GI50 [47] was 3.84 µM. For the same compound, the TGI [47] was 7.42 µM, the GI50 [48] was 4.45 µM and the TGI [48] was 8.21 µM. It also gave a GI50 [49] of 3.68 µM, a TGI [49] of 7.45 µM and a GI50 [50] of 2.98 µM. For the same compound, the TGI [50] was 8.52 µM, the GI50 [51] was 1.75 µM and the TGI [51] was 5.24 µM. It also gave a GI50 [52] of 3.05 µM, a TGI [52] of 7.55 µM and a GI50 [53] of 3.99 µM. For the same compound, the TGI [53] was 8.07 µM, the GI50 [54] was 3.17 µM and the TGI [54] was 6.61 µM. For the same compound, the GI50 [55] was 4.04 µM, the TGI [55] was 7.83 µM and the GI50 [56] was 4.48 µM. For the same compound, the TGI [56] was 8.22 µM, the GI50 [57] was 3.32 µM and the TGI [57] was 6.68 µM.
